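Step 1: Grow cells in 96-well plates. Step 2: Expose to compound for 48 hours at 5 concentrations. Step 3: Interpolate endpoints linearly; if unreached, use highest concentration. GI50 = concentration required for 50% inhibition of growth.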 Activity calls are given as the source filed them. Cut-off read from the data, not from the text of the source: active = GI50 up to about 1.1 µM and inactive = higher.
Experiments:
Assay in all cases: NCI anticancer screen, dose series, 48 h
[1] = tested on: BT-549
[2] = tested on: CAKI-1
[3] = tested on: COLO 205
[4] = tested on: DU-145
[5] = tested on: HCC 2998
[6] = tested on: HL-60
[7] = tested on: HT-29
[8] = tested on: K562
[9] = tested on: LOX IMVI
[10] = tested on: MDA-N
[11] = tested on: Malme-3M
[12] = tested on: NCI-H226
[13] = tested on: OVCAR-3
[14] = tested on: OVCAR-5
[15] = tested on: OVCAR-8
[16] = tested on: SF-295
[17] = tested on: SF-539
[18] = tested on: SK-MEL-28
[19] = tested on: SNB-75
[20] = tested on: TK-10

Row | SMILES | GI50 [1] | GI50 [2] | GI50 [3] | GI50 [4] | GI50 [5] | GI50 [6] | GI50 [7] | GI50 [8] | GI50 [9] | GI50 [10] | GI50 [11] | GI50 [12] | GI50 [13] | GI50 [14] | GI50 [15] | GI50 [16] | GI50 [17] | GI50 [18] | GI50 [19] | GI50 [20]
1 | CCCCCOC(=O)c1cc2cc(CCl)ccc2oc1=O | 11.9 µM (inactive) | 1.75 µM (inactive) | 2.36 µM (inactive) | 3.86 µM (inactive) | 14.9 µM (inactive) | 0.552 µM (active) | 7.01 µM (inactive) | 3.79 µM (inactive) | 14.4 µM (inactive) | 2.92 µM (inactive) | 0.274 µM (active) | 15.7 µM (inactive) | 2.82 µM (inactive) | 14.4 µM (inactive) | 17.9 µM (inactive) | 13.7 µM (inactive) | 27.6 µM (inactive) | 6.49 µM (inactive) | 8.22 µM (inactive) | 0.957 µM (active)
2 | CCOC(=O)c1c(N/C(S)=N/c2ccccc2)sc2c1CCOC2 | 2.08 µM (inactive) | 43.3 µM (inactive) | > 100 µM (inactive) | 80.5 µM (inactive) | 70.1 µM (inactive) | 24 µM (inactive) | 89.9 µM (inactive) | > 100 µM (inactive) | 52.7 µM (inactive) | 50.1 µM (inactive) | 52.1 µM (inactive) | > 100 µM (inactive) | 87.9 µM (inactive) | 38.4 µM (inactive) | > 100 µM (inactive) | 46.8 µM (inactive) | > 100 µM (inactive) | 27.5 µM (inactive) | 17.5 µM (inactive) | 62.8 µM (inactive)
